Results reported in US11572590B2, “Methods for evaluating tumor cell spheroids using 3D microfluidic cell culture device” (Dana-Farber Cancer Institute, Inc., priority 2017, dated 2023).
Like-named read-outs stand apart in the source and are kept apart here.

Columns and labels:
Experiment in all cases: SelectScreen Kinase Profiling, single point inhibition and IC50 for off-target kinases
Format in all cases: biochemical
off-target kinases [1] = biological target: off-target kinases (Homo sapiens, UniProt P07949, V804M); details: RET V804M, mutant y, LanthaScreen Binding
Chain of off-target kinases (Homo sapiens, UniProt P07949, V804M) (P07949 29-1114 V804M): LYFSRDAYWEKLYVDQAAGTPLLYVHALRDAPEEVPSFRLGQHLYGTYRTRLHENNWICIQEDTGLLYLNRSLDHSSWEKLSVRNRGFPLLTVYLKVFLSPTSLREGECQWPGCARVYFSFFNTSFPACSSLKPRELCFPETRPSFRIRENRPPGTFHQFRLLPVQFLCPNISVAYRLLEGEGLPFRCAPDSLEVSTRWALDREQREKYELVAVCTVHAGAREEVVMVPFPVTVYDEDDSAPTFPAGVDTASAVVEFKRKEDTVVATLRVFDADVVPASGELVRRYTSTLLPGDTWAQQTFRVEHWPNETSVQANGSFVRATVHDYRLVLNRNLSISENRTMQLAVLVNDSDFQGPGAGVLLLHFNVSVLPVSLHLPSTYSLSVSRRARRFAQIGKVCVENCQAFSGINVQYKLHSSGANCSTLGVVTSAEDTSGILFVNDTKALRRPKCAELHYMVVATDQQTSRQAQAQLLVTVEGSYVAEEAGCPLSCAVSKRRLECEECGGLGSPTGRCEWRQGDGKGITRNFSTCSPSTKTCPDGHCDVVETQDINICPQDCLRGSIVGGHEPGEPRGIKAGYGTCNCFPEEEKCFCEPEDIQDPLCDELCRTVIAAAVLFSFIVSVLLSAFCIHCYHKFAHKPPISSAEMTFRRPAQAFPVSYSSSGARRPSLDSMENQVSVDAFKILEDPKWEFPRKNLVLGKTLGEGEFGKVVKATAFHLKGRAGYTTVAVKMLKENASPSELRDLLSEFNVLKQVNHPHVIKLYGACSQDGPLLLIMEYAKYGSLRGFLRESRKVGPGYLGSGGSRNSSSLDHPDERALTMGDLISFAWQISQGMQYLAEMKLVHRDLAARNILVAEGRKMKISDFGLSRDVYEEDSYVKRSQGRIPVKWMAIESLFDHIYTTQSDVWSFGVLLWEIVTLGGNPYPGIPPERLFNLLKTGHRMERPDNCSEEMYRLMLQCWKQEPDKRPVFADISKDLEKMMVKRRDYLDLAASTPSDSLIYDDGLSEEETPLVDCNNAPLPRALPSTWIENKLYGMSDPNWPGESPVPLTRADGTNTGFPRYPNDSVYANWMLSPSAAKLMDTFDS

off-target kinases [2] = biological target: off-target kinases (Homo sapiens, UniProt O75914); details: PAK3, ZLYTE, ATP Km app
Chain of off-target kinases (Homo sapiens, UniProt O75914) (O75914 whole entry): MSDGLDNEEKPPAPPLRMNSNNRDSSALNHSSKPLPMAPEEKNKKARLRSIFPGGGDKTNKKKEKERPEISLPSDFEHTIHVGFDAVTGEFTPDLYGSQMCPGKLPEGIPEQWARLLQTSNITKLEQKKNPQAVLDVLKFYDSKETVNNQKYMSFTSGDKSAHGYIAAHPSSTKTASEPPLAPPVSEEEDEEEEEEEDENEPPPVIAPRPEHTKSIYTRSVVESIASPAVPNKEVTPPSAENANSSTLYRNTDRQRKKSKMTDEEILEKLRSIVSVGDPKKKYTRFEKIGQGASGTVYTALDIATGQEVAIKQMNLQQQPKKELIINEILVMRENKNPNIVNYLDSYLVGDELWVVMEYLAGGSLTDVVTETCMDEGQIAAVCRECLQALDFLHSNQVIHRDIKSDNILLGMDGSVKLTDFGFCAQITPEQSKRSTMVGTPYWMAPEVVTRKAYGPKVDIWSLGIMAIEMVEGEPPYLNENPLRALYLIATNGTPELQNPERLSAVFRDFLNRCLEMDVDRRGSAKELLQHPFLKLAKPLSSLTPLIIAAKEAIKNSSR

off-target kinases [3] = biological target: off-target kinases (Homo sapiens, UniProt P49759); details: CLK1, ZLYTE, ATP Km app
Chain of off-target kinases (Homo sapiens, UniProt P49759) (P49759 whole entry): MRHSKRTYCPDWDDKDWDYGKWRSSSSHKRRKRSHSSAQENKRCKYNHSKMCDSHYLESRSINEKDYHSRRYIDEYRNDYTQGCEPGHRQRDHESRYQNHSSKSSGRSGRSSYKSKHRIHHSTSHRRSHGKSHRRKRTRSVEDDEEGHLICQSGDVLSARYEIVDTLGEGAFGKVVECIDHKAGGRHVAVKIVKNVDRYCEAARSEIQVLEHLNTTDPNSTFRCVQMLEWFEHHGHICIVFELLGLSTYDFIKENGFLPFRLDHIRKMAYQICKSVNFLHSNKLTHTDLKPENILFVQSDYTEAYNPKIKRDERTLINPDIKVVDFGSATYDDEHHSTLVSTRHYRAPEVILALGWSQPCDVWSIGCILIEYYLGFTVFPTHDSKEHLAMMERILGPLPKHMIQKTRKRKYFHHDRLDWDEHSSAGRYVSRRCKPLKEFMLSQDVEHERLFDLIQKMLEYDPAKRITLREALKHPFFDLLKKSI

off-target kinases [4] = biological target: off-target kinases (Homo sapiens, UniProt Q9H422); details: HIPK3 (YAK1), ZLYTE, ATP Km app
Chain of off-target kinases (Homo sapiens, UniProt Q9H422) (Q9H422 whole entry): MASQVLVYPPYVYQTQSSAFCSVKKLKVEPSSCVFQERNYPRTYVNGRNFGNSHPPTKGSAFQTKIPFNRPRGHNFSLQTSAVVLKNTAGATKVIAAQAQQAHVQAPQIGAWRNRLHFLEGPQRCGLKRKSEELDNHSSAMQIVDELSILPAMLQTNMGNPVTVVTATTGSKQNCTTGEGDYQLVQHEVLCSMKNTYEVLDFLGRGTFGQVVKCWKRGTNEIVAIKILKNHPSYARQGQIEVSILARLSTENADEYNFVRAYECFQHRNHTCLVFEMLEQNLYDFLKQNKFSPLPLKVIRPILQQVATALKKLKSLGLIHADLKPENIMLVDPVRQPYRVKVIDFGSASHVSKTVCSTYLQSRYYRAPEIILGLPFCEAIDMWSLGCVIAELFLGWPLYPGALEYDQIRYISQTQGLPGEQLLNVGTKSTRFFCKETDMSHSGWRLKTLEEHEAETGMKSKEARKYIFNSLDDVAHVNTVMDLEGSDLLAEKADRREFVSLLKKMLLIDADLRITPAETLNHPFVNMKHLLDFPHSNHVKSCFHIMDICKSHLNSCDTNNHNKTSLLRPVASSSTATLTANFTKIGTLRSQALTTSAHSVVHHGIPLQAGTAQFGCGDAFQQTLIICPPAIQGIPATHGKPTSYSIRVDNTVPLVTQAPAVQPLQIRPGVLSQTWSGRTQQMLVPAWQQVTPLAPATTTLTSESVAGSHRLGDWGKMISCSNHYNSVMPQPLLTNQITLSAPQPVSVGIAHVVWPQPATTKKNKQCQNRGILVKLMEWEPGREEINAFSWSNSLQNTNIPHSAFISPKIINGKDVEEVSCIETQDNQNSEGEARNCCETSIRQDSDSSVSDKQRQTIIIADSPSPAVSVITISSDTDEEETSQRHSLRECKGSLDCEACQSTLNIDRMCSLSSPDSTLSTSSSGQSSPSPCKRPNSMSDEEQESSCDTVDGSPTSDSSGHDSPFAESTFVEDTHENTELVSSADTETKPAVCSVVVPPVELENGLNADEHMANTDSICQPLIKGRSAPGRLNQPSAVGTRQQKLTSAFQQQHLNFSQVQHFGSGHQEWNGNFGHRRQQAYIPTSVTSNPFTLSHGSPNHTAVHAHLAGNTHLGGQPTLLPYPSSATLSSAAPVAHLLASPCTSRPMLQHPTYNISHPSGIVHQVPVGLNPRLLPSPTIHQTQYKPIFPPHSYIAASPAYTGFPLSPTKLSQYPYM

off-target kinases [5] = biological target: off-target kinases (Homo sapiens, UniProt P00519, G250E); details: ABL1 G250E, ATP Km app, ZLYTE
off-target kinases [6] = biological target: off-target kinases (Homo sapiens, UniProt Q00526); details: CDK3/cyclin E1, LanthaScreen Binding
Chain of off-target kinases (Homo sapiens, UniProt Q00526) (Q00526 whole entry): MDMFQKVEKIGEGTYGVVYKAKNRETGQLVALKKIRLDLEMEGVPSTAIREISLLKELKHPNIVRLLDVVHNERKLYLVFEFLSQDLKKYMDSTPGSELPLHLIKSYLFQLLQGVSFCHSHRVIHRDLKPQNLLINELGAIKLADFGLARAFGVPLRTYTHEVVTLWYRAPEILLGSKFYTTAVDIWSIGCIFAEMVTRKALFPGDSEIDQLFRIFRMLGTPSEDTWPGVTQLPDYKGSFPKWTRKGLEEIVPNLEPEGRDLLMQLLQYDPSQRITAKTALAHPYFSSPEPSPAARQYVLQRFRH

off-target kinases [7] = biological target: off-target kinases (Homo sapiens, UniProt P30530, R499C); details: AXL R499C, mutant y, LanthaScreen Binding
Chain of off-target kinases (Homo sapiens, UniProt P30530, R499C) (P30530 26-894 R499C): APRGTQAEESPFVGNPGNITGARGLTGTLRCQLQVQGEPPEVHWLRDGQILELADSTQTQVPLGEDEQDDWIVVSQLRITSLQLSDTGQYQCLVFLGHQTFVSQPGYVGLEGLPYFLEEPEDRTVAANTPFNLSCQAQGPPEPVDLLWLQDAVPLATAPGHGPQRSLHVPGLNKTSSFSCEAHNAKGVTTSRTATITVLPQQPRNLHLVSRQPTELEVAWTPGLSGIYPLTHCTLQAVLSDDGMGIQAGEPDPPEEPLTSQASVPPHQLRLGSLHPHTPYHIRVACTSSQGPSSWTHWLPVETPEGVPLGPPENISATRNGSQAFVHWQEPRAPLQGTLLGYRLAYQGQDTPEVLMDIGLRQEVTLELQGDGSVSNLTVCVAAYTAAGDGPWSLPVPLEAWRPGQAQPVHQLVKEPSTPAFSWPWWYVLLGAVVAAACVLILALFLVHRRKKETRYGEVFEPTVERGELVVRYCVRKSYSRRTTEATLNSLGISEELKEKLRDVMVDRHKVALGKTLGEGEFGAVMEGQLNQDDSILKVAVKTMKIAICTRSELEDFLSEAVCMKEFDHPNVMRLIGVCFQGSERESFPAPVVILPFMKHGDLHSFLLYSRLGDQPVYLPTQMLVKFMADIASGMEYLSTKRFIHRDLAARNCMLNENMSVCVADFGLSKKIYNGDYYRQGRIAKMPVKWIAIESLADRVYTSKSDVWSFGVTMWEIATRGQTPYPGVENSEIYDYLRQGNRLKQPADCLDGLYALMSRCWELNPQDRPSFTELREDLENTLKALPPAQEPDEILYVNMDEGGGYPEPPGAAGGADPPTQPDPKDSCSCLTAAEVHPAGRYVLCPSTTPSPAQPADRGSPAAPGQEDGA

off-target kinases [8] = biological target: T1, off-target kinases (Homo sapiens, UniProt Q13043)
T1 sequence (Q13043 1-487): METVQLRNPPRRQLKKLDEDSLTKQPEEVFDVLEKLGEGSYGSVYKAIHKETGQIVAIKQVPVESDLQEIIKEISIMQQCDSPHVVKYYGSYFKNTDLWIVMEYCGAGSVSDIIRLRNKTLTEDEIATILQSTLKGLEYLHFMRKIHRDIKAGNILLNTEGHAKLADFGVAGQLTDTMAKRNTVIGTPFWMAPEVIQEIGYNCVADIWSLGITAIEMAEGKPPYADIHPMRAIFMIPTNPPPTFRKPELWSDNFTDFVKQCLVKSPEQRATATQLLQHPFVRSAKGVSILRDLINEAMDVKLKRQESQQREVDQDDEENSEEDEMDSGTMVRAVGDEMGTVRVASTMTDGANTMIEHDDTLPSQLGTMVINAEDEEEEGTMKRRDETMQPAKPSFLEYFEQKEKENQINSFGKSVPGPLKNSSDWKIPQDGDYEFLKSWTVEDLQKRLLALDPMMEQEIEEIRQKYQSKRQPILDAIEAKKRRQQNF

With `N#Cc1cc(-c2ncnc(Nc3ccc(N4CCN(C5COC5)CC4)cc3)n2)ccc1OC1CCOCC1` [Compound 1, 5-(4-((4-(4-(oxetan-3-yl)piperazin-1-yl)phenyl)amino)-1,3,5-triazin-2-yl)-2-((tetrahydro-2H-pyran-4-yl)oxy)benzonitrile] the inhibition (off-target kinases [1]; read-out: % Inhibition 1) was 35%, the inhibition (off-target kinases [1]; read-out: % Inhibition 2) was 31% and the inhibition (off-target kinases [1]; read-out: % Inhibition Avg) was 33%. The inhibition (off-target kinases [2]; read-out: % Inhibition 1) was 7%, the inhibition (off-target kinases [2]; read-out: % Inhibition 2) was 2% and the inhibition (off-target kinases [2]; read-out: % Inhibition Avg) was 5%. It also gave an inhibition (off-target kinases [3]; read-out: % Inhibition 1) of 33%, an inhibition (off-target kinases [3]; read-out: % Inhibition 2) of 34% and an inhibition (off-target kinases [3]; read-out: % Inhibition Avg) of 33%. The inhibition (off-target kinases [4]; read-out: % Inhibition 1) was 15%, the inhibition (off-target kinases [4]; read-out: % Inhibition 2) was 11% and the inhibition (off-target kinases [4]; read-out: % Inhibition Avg) was 13%. It also gave an inhibition (off-target kinases [5]; read-out: % Inhibition 1) of 60%, an inhibition (off-target kinases [5]; read-out: % Inhibition 2) of 61% and an inhibition (off-target kinases [5]; read-out: % Inhibition Avg) of 60%. It also gave an inhibition (off-target kinases [6]; read-out: % Inhibition 1) of 2%, an inhibition (off-target kinases [6]; read-out: % Inhibition 2) of 9% and an inhibition (off-target kinases [6]; read-out: % Inhibition Avg) of 6%. It also gave an inhibition (off-target kinases [7]; read-out: % Inhibition 1) of 28%, an inhibition (off-target kinases [7]; read-out: % Inhibition 2) of 27% and an inhibition (off-target kinases [7]; read-out: % Inhibition Avg) of 27%. For the same compound, the inhibition (off-target kinases [8]; STK4 (MST1), ZLYTE, ATP Km app, read-out: % Inhibition Avg) was 0%, the inhibition (off-target kinases [8]; read-out: % Inhibition 1) was 0% and the inhibition (off-target kinases [8]; read-out: % Inhibition 2) was 0%.
